Experimental data published in patent US8383657B2, “Thiazolylidine urea and amide derivatives and methods of use thereof” (Abbott Laboratories, priority 2007, dated 2013).

How the values were obtained:
Format in all cases: cell-based
α7 NNRs [1] = target: T1, α7 NNRs (Homo sapiens, UniProt P36544); assay: High-throughput calcium flux (FLIPR) assay using IMR-32 cells expressing endogenous α7 NNRs; design: Emax: dose or concentration left out as unconfirmed
T1 construct: using cells natively expressing α7 NNRs; host or cells: IMR-32 neuroblastoma cells
T1 sequence (P36544 23-502): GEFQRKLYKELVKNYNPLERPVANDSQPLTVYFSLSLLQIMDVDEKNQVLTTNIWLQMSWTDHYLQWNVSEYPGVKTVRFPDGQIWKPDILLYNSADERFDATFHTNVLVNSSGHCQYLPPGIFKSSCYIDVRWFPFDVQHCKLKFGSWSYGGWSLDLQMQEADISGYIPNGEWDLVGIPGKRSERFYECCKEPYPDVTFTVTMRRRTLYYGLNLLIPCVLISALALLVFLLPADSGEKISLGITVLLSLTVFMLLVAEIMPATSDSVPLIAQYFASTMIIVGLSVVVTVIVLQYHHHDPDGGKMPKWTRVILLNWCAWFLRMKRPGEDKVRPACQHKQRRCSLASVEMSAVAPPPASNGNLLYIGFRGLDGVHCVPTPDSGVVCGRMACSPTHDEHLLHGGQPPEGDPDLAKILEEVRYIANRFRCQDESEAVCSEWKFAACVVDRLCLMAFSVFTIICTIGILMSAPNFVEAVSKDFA
Protocol: (ii) High-Throughput Calcium Flux Assays Using Cells Expressing Endogenous α7 NNRs
IMR-32 neuroblastoma cells (ATCC) were grown to confluency in 162 cm^2 tissue culture flasks in minimum essential media supplemented with 10% FBS and 1 mM sodium pyruvate, 0.1 mM non-essential amino acids and 1% antibiotic-antimycotic. The cells were then dissociated using cell dissociation buffer and 40 μl of 3.5×10^5 cells/ml cell suspension was plated (about 15,000 cells/well) into black plates with clear bottom and maintained for 48 hours in a tissue culture incubator at 37° C. under an atmosphere of 5% CO2: 95% air. […] Calcium flux was measured using calcium-3 assay kit (Molecular Devices, Sunnyvale, Calif.) or fluo-4. A stock solution of the dye was prepared by dissolving each vial supplied by the vendor in Hank's balanced salt solution buffer (HBSS) containing 20 mM HEPES. The stock solution was diluted 1:20 using the same buffer before use. After removing the growth media, the cells were loaded with 45 μl of the dye and incubated at room temperature for three hours. Fluorescence measurements were read simultaneously from all the wells by a Fluorometric Imaging Plate Reader (FLIPR) at an excitation wavelength of 480 nm and an emission wavelength of 520 nm. Baseline fluorescence was measured for the first 10 seconds at which 5× concentrations of modulator/test compounds were added to the cell plate and incubated for three minutes. The fluorescence intensity was captured every second for the first 1 minute followed by every 5 seconds for an additional 2 minutes. This procedure was followed by 20 μl of 4× concentration of agonist and readings were taken for a period of three minutes as described above. […] The concentration dependence of changes fluorescence responses was fitted by nonlinear regression analysis (GraphPad Prism, San Diego, Calif.) to obtain EC50 values.
PAMs were identified by measuring fluorescence changes to intracellular calcium in a fluorometric plate reader in the presence of selective α7 NNR agonists using cells natively expressing α7 NNRs. […]

α7 NNRs [2] = target: T2, α7 NNRs (Rattus norvegicus, UniProt Q05941); assay: High-throughput ERK phosphorylation assay (in-cell western) using PC-12 cells expressing endogenous α7 NNRs
T2 construct: host or cells: PC-12 rat pheochromocytoma cells
T2 sequence (Q05941 23-502): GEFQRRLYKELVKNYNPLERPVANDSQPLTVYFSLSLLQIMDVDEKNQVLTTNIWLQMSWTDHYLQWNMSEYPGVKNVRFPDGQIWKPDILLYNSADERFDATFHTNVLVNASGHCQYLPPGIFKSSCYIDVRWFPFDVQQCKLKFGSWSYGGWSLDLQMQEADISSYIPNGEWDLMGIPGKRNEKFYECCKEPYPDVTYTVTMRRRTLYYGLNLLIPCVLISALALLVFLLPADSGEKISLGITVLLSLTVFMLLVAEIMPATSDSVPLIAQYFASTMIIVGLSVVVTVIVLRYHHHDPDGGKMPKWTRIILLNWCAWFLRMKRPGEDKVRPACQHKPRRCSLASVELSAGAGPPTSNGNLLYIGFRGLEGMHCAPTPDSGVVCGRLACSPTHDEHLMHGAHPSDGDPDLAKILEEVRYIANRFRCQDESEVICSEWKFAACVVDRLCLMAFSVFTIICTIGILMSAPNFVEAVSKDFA
Protocol: (iii) High-Throughput ERK Phosphorylation Assays Using Cells Expressing Endogenous α7 NNRs
Rat pheochromocytoma (PC-12) cells (ATCC, Manassas, Va.) were cultured and maintained in F-12K media supplemented with 15% horse serum, 2.5% fetal calf serum, and 2 mM L-glutamine in poly-D lysine coated dishes at 37° C. and 5% CO2. Cells were plated in black-walled clear bottom 96-well Biocoat™ plates coated with poly-D-lysine (BD Biosciences, Bedford, Mass.) and grown for 2-3 days. Afterward, the culture media is replaced with serum-free media to starve cells overnight. On the day of the assay, cell media was removed and cells (60-80% confluent) were treated with agonist and/or modulator in Dulbecco's phosphate buffer saline (D-PBS) (with Ca^2+, Mg^2+, and 1 mg/ml D-glucose), as indicated in the result section.
PC-12 cells are treated for 10 minutes at 37° C. with test PAM compounds and then challenged with a selective α7 agonist for 5 minutes at 37° C. in a final volume of 100 μl/well, unless otherwise indicated. After treatment, media was discarded and adherent cells were immediately fixed in the presence of 150 μl/well of 3.7% formaldehyde/phosphate-buffered saline for 30-60 minutes at room temperature. […] Well intensities were quantitated and phospho-ERK signals were normalized to total ERK signals by the Odyssey software. […]

human α7 NNR = target: T3, human α7 NNR (Homo sapiens, UniProt P36544); assay: Two-electrode voltage-clamp in Xenopus laevis oocytes: potentiation of ACh-evoked α7 currents; settings: FIG. 1A
T3 construct: expressed in transfected cells; host or cells: Xenopus laevis oocytes injected with cRNA
T3 sequence (P36544 23-502): as the sequence (P36544 23-502) above
Protocol: (i) Two-Electrode Voltage-Clamp in Xenopus laevis Oocytes.
X. laevis oocytes were prepared for electrophysiological experiments as described in the literature (see for example, Briggs, C. A., Mckenna, D. G., and Piattina-kaplan, M., Human α7 nicotinic acetylcholine receptor responses to novel ligands, Neuropharmacology, 1995, 34: 583-590; Briggs, C. A., and Mckenna, D. G., Activation and inhibition of the human α7 nicotinic acetylcholine receptor by agonists, Neuropharmacology, 1998, 37: 1095-1102). […] Responses were measured by two-electrode voltage clamp using parallel oocyte electrophysiology test station (Abbott, Abbott Park, Ill.) (see for example, Trumbull, J. D., Maslana, E. S., McKenna, D. G., Nemcek, T. A., Niforatos, W., Pan, J. Y., Parihar, A. S., Shieh, C. C., Wilkins, J. A., Briggs, C. A., and Bertrand, D., High throughput electrophysiology using a fully automated, multiplexed recording system, Receptors Channels, 2003, 9: 19-28). […] The data were expressed as percentage potentiation over the response to 0.1 mM ACh alone. […]

SMILES | effect on calcium response to agonist plus modulator (α7 NNRs [1]; IMR-32 cells, α7 selective antagonist) | EC50 (α7 NNRs [1]; FIG. 1B, IMR-32 cells, agonist 4-(5-phenyl-[1,3,4]oxadiazol-2-yl)-1,4-diaza-bicyclo[3.2.2]nonane at 10 μM, read-out: EC50 value, calcium fluorescence response) [µM] | Emax (α7 NNRs [1]; IMR-32, read-out: maximal effects, normalized change in fluorescence) [%] | EC50 (α7 NNRs [2]; FIG. 1C, PC-12 cells, α7 selective agonist PNU-282987) [µM] | Emax (α7 NNRs [2]; PC-12, read-out: maximal efficacy) [%] | EC50 (human α7 NNR; 0.1 mM ACh, oocytes injected with human α7 NNR cRNA, read-out: EC50 value, potentiating 0.1 mM ACh-evoked α7 currents in oocytes) [µM] | degree of potentiation (human α7 NNR; percentage potentiation over the response to 0.1 mM ACh alone) [%]
CCN1C[C@]2(COC(=O)c3ccccc3N3C(=O)C[C@H](C)C3=O)CC[C@H](OC)[C@@]34[C@@H]5C[C@H]6[C@H](OC)[C@@H]5[C@](O)(C[C@@H]6OC)[C@@](O)([C@@H](OC)[C@H]23)[C@@H]14 [methyllycaconitine, reference compound] | abolishes response | – | – | – | – | – | –
Cc1cn(-c2ccc(C(F)(F)F)cc2)/c(=N/C(=O)N2CCCC2)s1 [Example 18, N-[(2Z)-5-methyl-3-[4-(trifluoromethyl)phenyl]-1,3-thiazol-2(3H)-ylidene]pyrrolidine-1-carboxamide] | – | 3.4 | 110 | 1.4 | 111 | 4 | 300
